13 compounds from ChEMBL document CHEMBL4038276 (Bioorg Med Chem, 2017) can be followed below.

The target in experiment [1] is Kappa-type opioid receptor (Rattus norvegicus) (UniProt P34975). Put plainly: Displacement of [3H]U-69,593 from kappa opioid receptor in rat brain at 100 nM after 60 mins by liquid scintillation counting method relative to control.
Experiment [2] has as its target Mu-type opioid receptor (Rattus norvegicus) (UniProt P33535). Nature of the experiment: Antagonist activity at rat mu opioid receptor expressed in rat C6 cell membranes assessed as inhibition of DAMGO-induced [35S]GTPgammaS binding measured after 1 hr by liquid scintillation counting method. Format: functional. For orientation: GTPγS is a poorly hydrolysed GTP analogue; its binding reports G protein activation.

Experiment [3] has as its target T1, Mu-type opioid receptor (Rattus norvegicus, UniProt P33535).
The target in experiment [4] is Mu-type opioid receptor (Rattus norvegicus) (UniProt P33535). Nature of the experiment: Antagonist activity at rat brain mu opioid receptor expressed in rat C6 cell membranes assessed as inhibition of DAMGO-induced [35S]GTPgammaS binding at 1 uM after 1 hr by liquid scintillation counting method. Format: functional.
Mu-type opioid receptor (Rattus norvegicus), sequence (P33535 whole entry): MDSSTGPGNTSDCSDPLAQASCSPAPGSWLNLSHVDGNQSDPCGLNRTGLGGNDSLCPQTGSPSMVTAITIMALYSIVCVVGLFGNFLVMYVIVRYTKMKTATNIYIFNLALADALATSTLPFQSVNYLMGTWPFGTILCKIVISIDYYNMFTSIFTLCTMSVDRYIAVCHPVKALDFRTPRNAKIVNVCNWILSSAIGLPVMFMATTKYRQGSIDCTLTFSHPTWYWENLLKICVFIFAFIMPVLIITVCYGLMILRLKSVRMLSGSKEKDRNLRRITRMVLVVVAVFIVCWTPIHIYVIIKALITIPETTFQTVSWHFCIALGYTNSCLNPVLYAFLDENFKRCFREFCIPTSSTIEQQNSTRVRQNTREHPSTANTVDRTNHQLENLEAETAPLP
In experiment [5] the target is Delta-type opioid receptor (Rattus norvegicus) (UniProt P33533). Put plainly: Displacement of [3H]DADLE from delta opioid receptor in rat brain at 100 nM after 60 mins by liquid scintillation counting method relative to control. A general note: In a radioligand displacement assay an active substance lowers the binding of a labelled ligand.
Delta-type opioid receptor (Rattus norvegicus), sequence (P33533 whole entry): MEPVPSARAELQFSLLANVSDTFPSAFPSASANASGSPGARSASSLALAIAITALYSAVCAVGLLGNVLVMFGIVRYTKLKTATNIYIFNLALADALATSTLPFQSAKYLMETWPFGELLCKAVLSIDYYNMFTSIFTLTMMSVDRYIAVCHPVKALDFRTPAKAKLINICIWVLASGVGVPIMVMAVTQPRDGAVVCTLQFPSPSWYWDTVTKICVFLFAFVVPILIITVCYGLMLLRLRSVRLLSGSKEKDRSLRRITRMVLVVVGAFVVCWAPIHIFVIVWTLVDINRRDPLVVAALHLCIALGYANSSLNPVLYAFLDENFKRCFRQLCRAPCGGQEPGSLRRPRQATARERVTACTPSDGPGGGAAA
Experiment [6] addresses Mu-type opioid receptor (Rattus norvegicus) (UniProt P33535). The conditions noted are these: at 100 nM.
Experiment [7] shares this target. Nature of the experiment: Agonist activity at rat mu opioid receptor expressed in rat C6 cell membranes assessed as stimulation of [35S]GTPgammaS binding incubated for 1 hr by liquid scintillation counting method relative to DAMGO. Format: functional.
For experiment [8], the target named is T1, Mu-type opioid receptor. Nature of the experiment: Agonist activity at rat mu opioid receptor expressed in rat C6 cell membranes assessed as stimulation of [35S]GTPgammaS binding incubated for 1 hr by liquid scintillation counting method. In kind it is functional.
The target in experiment [9] is Delta-type opioid receptor (Rattus norvegicus) (UniProt P33533). Nature of the experiment: Agonist activity at rat delta opioid receptor expressed in rat C6 cell membranes assessed as stimulation of [35S]GTPgammaS binding incubated for 1 hr by liquid scintillation counting method relative to DPDPE. In kind it is functional.
The target in experiment [10] is T2, Delta-type opioid receptor (Rattus norvegicus, UniProt P33533). Nature of the experiment: Displacement of [3H]DADLE from delta opioid receptor in rat brain after 60 mins by liquid scintillation counting method.
T2 sequence (P33533 whole entry): as above
For experiment [11], the target named is Kappa-type opioid receptor (Rattus norvegicus, UniProt P34975). Nature of the experiment: Displacement of [3H]U-69,593 from kappa opioid receptor in rat brain after 60 mins by liquid scintillation counting method.
Kappa-type opioid receptor (Rattus norvegicus, UniProt P34975), sequence (P34975 whole entry): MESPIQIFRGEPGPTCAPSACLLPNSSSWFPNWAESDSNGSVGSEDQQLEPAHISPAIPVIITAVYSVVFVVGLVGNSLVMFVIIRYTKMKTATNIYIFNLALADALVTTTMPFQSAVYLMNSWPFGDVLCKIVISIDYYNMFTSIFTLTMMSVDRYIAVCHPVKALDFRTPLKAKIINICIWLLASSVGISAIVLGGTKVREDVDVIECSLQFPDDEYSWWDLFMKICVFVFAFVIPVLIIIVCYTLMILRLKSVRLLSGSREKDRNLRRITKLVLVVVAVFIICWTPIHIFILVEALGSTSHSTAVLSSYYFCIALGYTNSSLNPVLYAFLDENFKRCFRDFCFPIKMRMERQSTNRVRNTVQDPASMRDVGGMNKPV
For experiment [12], the species on record is Rattus norvegicus. Nature of the experiment: Selectivity ratio of EC50 for rat delta opioid receptor to EC50 for rat mu opioid receptor.
The target of experiment [13] is T3, Kappa-type opioid receptor (Homo sapiens, UniProt P41145). Put plainly: Antagonist activity at human kappa opioid receptor expressed in CHO cell membranes assessed as inhibition of U-69,593-induced [35S]GTPgammaS binding measured after 1 hr by liquid scintillation counting method. In kind it is functional.
T3 sequence (P41145 whole entry): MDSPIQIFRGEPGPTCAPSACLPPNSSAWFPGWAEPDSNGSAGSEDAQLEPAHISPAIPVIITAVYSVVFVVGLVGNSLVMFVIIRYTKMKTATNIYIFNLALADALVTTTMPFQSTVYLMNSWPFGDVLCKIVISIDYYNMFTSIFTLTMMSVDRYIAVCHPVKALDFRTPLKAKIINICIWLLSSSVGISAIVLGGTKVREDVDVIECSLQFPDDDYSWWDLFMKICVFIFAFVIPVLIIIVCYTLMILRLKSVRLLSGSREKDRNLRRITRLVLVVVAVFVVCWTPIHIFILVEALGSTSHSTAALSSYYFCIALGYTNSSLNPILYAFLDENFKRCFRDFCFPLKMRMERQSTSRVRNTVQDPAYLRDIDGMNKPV
For experiment [14], the target named is T2, Delta-type opioid receptor. Put plainly: Agonist activity at rat delta opioid receptor expressed in rat C6 cell membranes assessed as stimulation of [35S]GTPgammaS binding incubated for 1 hr by liquid scintillation counting method. In kind it is functional.
Experiment [15] addresses T3, Kappa-type opioid receptor. Put plainly: Agonist activity at human kappa opioid receptor expressed in CHO cell membranes assessed as stimulation of [35S]GTPgammaS binding incubated for 1 hr by liquid scintillation counting method relative to U-69,593. In kind it is functional.
Experiment [16] can be described thus: Selectivity ratio of EC50 for human kappa opioid receptor expressed in CHO cell membranes to EC50 for rat mu opioid receptor expressed in rat C6 cell membranes. Format: cell-based.
In experiment [17] the target is T3, Kappa-type opioid receptor. Put plainly: Agonist activity at human kappa opioid receptor expressed in CHO cell membranes assessed as stimulation of [35S]GTPgammaS binding incubated for 1 hr by liquid scintillation counting method. In kind it is functional.

The structures appear in SMILES notation. Calls of active or inactive are those of the source. No cut-off for these calls is given here. Bounds are passed on as bounds.

Kappa-type opioid receptor (Rattus norvegicus), sequence (P34975 whole entry): as the sequence (P34975 whole entry) above
T1 sequence (P33535 whole entry): as the sequence (P33535 whole entry) above

`O=[N+]([O-])c1ccc(CCN2CC[C@]3(c4cccc(O)c4)CCC[C@H]2[C@@H]3O)cc1`: the inhibition (usually the drop in the measured response relative to a control, in per cent) was less than 50% in experiment [1], less than 50% in experiment [5] and greater than 50% in experiment [6]. The inhibition entry in [2] is “Active”. The inhibition constant Ki – broadly, a measure of affinity in units of concentration, obtained from inhibition or displacement – in [3] stood at 26.5 nM. The Ke in experiment [4] stood at 31.5 nM.
On to `Oc1cccc([C@]23CCC[C@H]([C@@H]2O)N(C[C@@H]2C[C@@H]2c2ccccc2)CC3)c1`, for which the Activity in experiment [7] was 22%. In experiment [8], the concentration for a half-maximal effect (EC50) (commonly the concentration that produces a half-maximal response) is 797 nM. Besides, the inhibition in experiment [1] is less than 50%; in experiment [5] it was less than 50%; in experiment [6], greater than 50%. The same compound returned an inhibitory constant (Ki) in [3] of 11.6 nM.
In the case of `Oc1cccc([C@]23CCC[C@H]([C@@H]2O)N(C[C@H]2C[C@H]2c2ccccc2)CC3)c1`, the values for the inhibition in experiment [1], in [5] and in experiment [6] were less than 50%, less than 50% and greater than 50%, respectively. Further, the inhibition result in experiment [2] was “Active”. This compound also registered an inhibition constant (Ki) in experiment [3] of 51.8 nM.
Regarding `O=[N+]([O-])c1ccc(CCN2CC[C@@]3(c4cccc(O)c4)CCC[C@@H]2[C@H]3O)cc1`, the Activity in [7] and in [9] was 104% each time. Further, the EC50 in experiment [8] came to 0.74 nM; in [14], 630 nM. The inhibition in experiment [1], in [5] and in experiment [6] was greater than 50% each time. In addition, the inhibition constant Ki in experiment [3] came out at 0.073 nM; in [10], 9.81 nM; in [11] it was 54.5 nM. Besides, the Ratio EC50 in [12] amounted to 850. The inhibition entry in experiment [13] was “Active”.
For `Oc1cccc([C@]23CCC[C@H]([C@@H]2O)N(C[C@@H]2C[C@H]2c2ccccc2)CC3)c1`, the results for the inhibition in [1], in experiment [5] and in experiment [6] were less than 50%, less than 50% and greater than 50%, respectively. The inhibition result in experiment [2] was “Active”. Moreover, the Ki in experiment [3] came to 44.5 nM.
Take `C=CCN1C[C@H](C)N([C@H](c2ccc(C(=O)N(CC)CC)cc2)c2cccc(OC)c2)C[C@H]1C`: the inhibition in experiment [5] is greater than 50%.
As for `C=CCN1CC[C@@]2(c3cccc(O)c3)CCC[C@@H]1[C@H]2O`, in [7], the Activity came out at 67%. For the same compound, the 50% effective concentration (EC50) in experiment [8] came to 2060 nM. The inhibition in experiment [1] is less than 50%; in experiment [5], less than 50%; in experiment [6], greater than 50%. The Ki in experiment [3] came to 29.2 nM.
As for `Oc1cccc([C@@]23CCC[C@@H]([C@@H]2O)N(CC/C=C/c2ccccc2)CC3)c1`, the inhibition in experiment [1] is less than 50%; in [5], less than 50%; in [6] it was greater than 50%. Further, the inhibition entry in experiment [2] is “Active”. This compound also returned an inhibition constant Ki in experiment [3] of 25 nM.
In the case of `CN1CC[C@]23c4c5ccc(O)c4O[C@H]2[C@@H](O)C=C[C@H]3[C@H]1C5`, the inhibition in [6] was greater than 50%.
Take `Oc1cccc([C@]23CCC[C@H]([C@H]2O)N(CCc2ccccc2)CC3)c1`: the Activity in experiment [7] was 120%; in experiment [9] it was 100%. The EC50 in [8] amounted to 22 nM; in [14] it was 1080 nM. Moreover, the Ki in experiment [3] was determined as 0.265 nM; in experiment [10], 19.2 nM. Further, the inhibition in experiment [5] and in experiment [6] was greater than 50% each time.
For `Oc1cccc(C23CCCC(C2O)N(C/C=C/c2ccccc2)CC3)c1` (single isomer, unassigned), the Activity stood at 20% in experiment [7] and 51% in experiment [9]. Also, the half-maximal effective concentration (EC50) was 1.9 nM in experiment [8] and 253 nM in experiment [14]. The inhibition in experiment [1] is less than 50%; in [5], greater than 50%; in [6], greater than 50%. The inhibition constant Ki in experiment [3] stood at 0.741 nM; in experiment [10] it was 17.8 nM. The Ratio EC50 in experiment [12] is 133.
With `CC[C@]12CCN(CC3CC3)[C@H](C(=O)c3ccc(O)cc31)[C@H]2C`, in [15], the Activity is 93%.
In the case of `Oc1cccc([C@]23CCC[C@H]([C@H]2O)N(CCc2ccc(C(F)(F)F)cc2)CC3)c1`, the figures for the Activity in [7], in experiment [9] and in experiment [15] were 83%, 50% and 18%, respectively. Moreover, the EC50 worked out at 19 nM in experiment [8], 761 nM in experiment [17] and 901 nM in experiment [14]. Besides, the inhibition in [1], in [5] and in experiment [6] was greater than 50% in each case. The Ki in experiment [3] stood at 1.99 nM; in experiment [10], 161 nM; in [11] it was 29.9 nM. The Ratio EC50 amounted to 40 in experiment [16] and 47 in [12].
